This note sets out measurements from publication PMC7997574, “Lead Optimization of Benzoxazolone Carboxamides as Orally Bioavailable and CNS Penetrant Acid Ceramidase Inhibitors” (Journal of Medicinal Chemistry, 2020).

Data set [1] is described as follows: In vitro microsomal stability study. The note with it: pH 7.4; mouse liver microsomes; read-out: m-LM t1/2. The data set is classed as in vitro ADME. How it is done: Freshly prepared 10 mM MeCN stock solution of test compound was preincubated at 37 °C for 15 min with mouse liver microsomes added in 0.1 M Tris HCl buffer (pH 7.4). The final concentration was 4.6 μM. After preincubation, the cofactors (NADPH, G6P, G6PDH, and MgCl2 predissolved in 0.1 M Tris HCl) were added to the incubation mixture, and the incubation was continued at 37 °C for 1 h. At each time point (0, 5, 15, 30, and 60 min), 30 μL of incubation mixture was diluted with 200 μL of cold MeCN spiked with 200 nM internal standard followed by centrifugation at 3300 × g for 15 min. The supernatant was further diluted with H2O (1:1) for analysis. The concentration of the test compound was quantified by LC/MS/MS on a Waters ACQUITY UPLC/MS TQD system consisting of a TQD MS equipped with an ESI interface. The analyses were run on an ACQUITY UPLC BEH C18 (50 × 2.1 mm ID, particle size 1.7 μm) with a VanGuard BEH C18 precolumn (5 × 2.1 mm ID, particle size 1.7 μm) at 40 °C. For each compound, the appropriate mobile phase was chosen. ESI was applied in positive mode. The percentage of test compound remaining at each time point relative to t = 0 was calculated. t1/2 was determined by a one-phase decay equation using a nonlinear regression of compound concentration vs time. Values are the mean of at least two independent experiments performed in two technical replicates.
On the technique in general: Microsomes from liver hold many membrane-bound enzymes, among them those of drug oxidation.

Data set [2] can be described thus: In vitro plasma stability study. In kind it is in vitro ADME. The note with it: mouse plasma; read-out: m-plasma t1/2. The protocol:
Freshly prepared 10 mM MeCN stock solution of test compound was diluted 50-fold with DMSO/H2O (1:1) and incubated at 37 °C for 2 h with mouse plasma added in 5% DMSO (preheated at 37 °C for 10 min). The final concentration was 2 μM. At each time point (0, 5, 15, 30, 60, and 120 min), 50 μL of incubation mixture was diluted with 200 μL of cold MeCN spiked with 200 nM internal standard followed by centrifugation at 3300 × g for 20 min. The supernatant was further diluted with H2O (1:1) for analysis. The concentration of test compound was quantified by LC/MS/MS on a Waters ACQUITY UPLC/MS TQD system consisting of a TQD MS equipped with an ESI interface. The analyses were run on an ACQUITY UPLC BEH C18 (50 × 2.1 mm ID, particle size 1.7 μm) with a VanGuard BEH C18 precolumn (5 × 2.1 mm ID, particle size 1.7 μm) at 40 °C. For each compound, the appropriate mobile phase was chosen. ESI was applied in positive mode. The response factors, calculated on the basis of the internal standard peak area, were plotted over time. When possible, response vs time profiles were fitted with Prism (GraphPad Software, Inc., USA) to estimate compound t1/2 in plasma. Values are the mean of at least two independent experiments performed in two technical replicates.

Data set [3] can be described thus: Aqueous kinetic solubility assay. The data set is classed as physicochemical. The settings on record: PBS, pH 7.4. How it is done:
The aqueous kinetic solubility was determined from a 10 mM MeCN stock solution of test compound in Phosphate-Buffered Saline (PBS) at pH 7.4. The study was performed by incubation of an aliquot of 10 mM MeCN stock solution in PBS (pH 7.4) at a target concentration of 250 μM. The incubation was carried out under shaking at 25 °C for 1 h followed by centrifugation at 21100 × g for 30 min. The supernatant was analyzed by UPLC/MS for the quantification of the dissolved compound (in μM) by UV at a specific wavelength (215 nm). […] The UPLC/MS analyses were performed on a Waters ACQUITY UPLC/MS system consisting of a single quadrupole detector (SQD) Mass Spectrometer (MS) equipped with an Electrospray Ionization (ESI) interface and a Photodiode Array Detector (PDA). The PDA range was 210–400 nm. ESI in positive mode was used in the mass scan range of 100–650 Da. The analyses were run on an ACQUITY UPLC BEH C18 column (50 × 2.1 mm ID, particle size 1.7 μm) with a VanGuard BEH C18 precolumn (5 × 2.1 mm ID, particle size 1.7 μm), using 10 mM NH4OAc in H2O at pH 5 adjusted with AcOH (A) and 10 mM NH4OAc in MeCN/H2O (95:5) at pH 5 (B) as the mobile phase. Values are reported as mean values of ≥2 experiments performed.

A further data set concerns the target T1, AC (Homo sapiens, UniProt Q13510).
T1 sequence (Q13510 22-395): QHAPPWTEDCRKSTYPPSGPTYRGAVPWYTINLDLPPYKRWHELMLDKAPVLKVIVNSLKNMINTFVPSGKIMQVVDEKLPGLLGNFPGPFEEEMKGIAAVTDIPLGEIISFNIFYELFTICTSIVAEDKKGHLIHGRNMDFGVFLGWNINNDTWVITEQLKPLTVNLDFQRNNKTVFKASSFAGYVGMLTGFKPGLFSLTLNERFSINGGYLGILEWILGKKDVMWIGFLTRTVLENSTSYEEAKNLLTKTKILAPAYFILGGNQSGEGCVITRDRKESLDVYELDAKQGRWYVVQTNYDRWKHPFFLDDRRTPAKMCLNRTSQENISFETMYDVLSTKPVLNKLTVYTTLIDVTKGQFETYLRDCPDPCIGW
Nature of the data set: Fluorogenic hAC assay on hAC-enriched lysate of HEK293 cells. The data set is classed as biochemical. Further details: expressed in transfected cells. The protocol: HEK293 cells stably expressing hAC were grown in Dulbecco’s modified Eagle medium (DMEM) containing 10% FBS, 1% glutamine, 1 mM sodium pyruvate, and 500 μg mL^–1 G418. Cells were harvested, and pellets were stored at −80 °C until lysosomal-enriched lysate preparation. Cells were suspended in 20 mM Tris HCl (pH 7.5) with 0.32 M sucrose, sonicated, and centrifuged at 800 × g for 30 min at 4 °C. Supernatants were then centrifuged at 12000 × g for 30 min at 4 °C. Pellets were resuspended in PBS (pH 7.4) and subjected to three freeze–thaw cycles at −80 °C. The suspension was finally centrifuged at 105000 × g for 1 h at 4 °C, and protein concentration was measured in the supernatant with the bicinchoninic acid based protein assay. This hAC-enriched preparation allowed us to further optimize the enzymatic assay and to use small amounts of lysate (2 μg per well) at a 5 μM substrate (Rbm14–12) around its KM (KM = 5.0 μM).
The assay was performed in Optiplate 96-well black plates, with each reaction well containing a mixture of 25 mM NaOAc buffer (pH 4.5) and a fixed amount of protein (2 μg) in a volume of 85 μL. After 10 min of preincubation with test compounds (diluted 20× from DMSO stock solutions at different concentrations), the fluorogenic probe was added (diluted 40× from EtOH stock solution, final concentration 5 μM). After 3 h of incubation at 37 °C, reactions were stopped with 50 μL of MeOH and 100 μL of a 2.5 mg mL^–1 NaIO4 fresh solution in 100 mM glycine/NaOH buffer (pH 10.6). The plates were further incubated for 2 h at 37 °C in the dark, and fluorescence intensities were measured at excitation/emission wavelengths of 355/460 nm. Negative control samples consisted of the same incubation mixture in the absence of protein-enriched extracts. Data were plotted as a function of compound concentrations. IC50 values were calculated by nonlinear regression analysis using GraphPad Prism 5 (GraphPad Software Inc., CA, USA) applying a standard slope curve fitting. The reported IC50 values are the mean of at least three independent experiments performed in three technical replicates.

[4] abbreviates: hAC expressed in HEK-293 cells, read-out: hAC IC50 (μM)±SD.
[5] abbreviates: supplementary csv, read-out: hAC, IC50.

One may read the solubility as the concentration that dissolves in the medium under given conditions. The low end stands for little dissolved substance, the high end for much dissolved substance. In general, IC50 refers to the concentration that inhibits the measured activity by half.

Where a name gives a salt, the structure may show the parent alone. Read-outs that look alike come from different tables or passages of the source.

`CCN1CCN(c2ccc3c(c2)oc(=O)n3C(=O)NCCCCc2ccccc2)CC1` [23g, 6-(4-Ethylpiperazin-1-yl)-2-oxo-N-(4-phenylbutyl)-1,3-benzoxazole-3-carboxamide]: the half-life at 4.6 μM in data set [1] was less than 5 min. In data set [2], the half-life at 2 μM was less than 5 min. In data set [3], this compound came in with a solubility at 1 h of less than 1 µM. Also, the IC50 on AC (setting [4]) turned out to be 0.056 ± 0.006 µM. Besides, the “fold more potent than 23e (hAC)” value at AC (vs 23e hAC IC50 = 0.363 μM) is roughly 7 fold.

With `O=C(NCCCCc1ccccc1)n1c(=O)oc2cc(C3CCOCC3)ccc21` [22b, 2-Oxo-N-(4-phenylbutyl)-6-tetrahydropyran-4-yl-1,3-benzoxazole-3-carboxamide], at AC (setting [4]), the IC50 is 0.068 ± 0.022 µM.

On to `O=C1Cc2ccccc2N1C(=O)NCCCCc1ccccc1` [8d, 2-Oxo-N-(4-phenylbutyl)indoline-1-carboxamide], for which the IC50 at AC (setting [4]) was greater than 10 µM.

For the compound `CCC(C)NC(=O)n1c(=O)oc2cc(C3CCN(C)CC3)ccc21` (stereo not shown) [22n, 6-(1-Methyl-4-piperidyl)-2-oxo-N-sec-butyl-1,3-benzoxazole-3-carboxamide], at AC (setting [4]), the IC50 amounted to 2.1 µM.

`O=C(NCCCCc1ccccc1)n1c2c(oc1=O)CCN(Cc1ccccc1)C2` [12d, 5-Benzyl-2-oxo-N-(4-phenylbutyl)-6,7-dihydro-4H-oxazolo[4,5-c]pyridine-3-carboxamide]: the IC50 on AC (setting [5]) was 0.436 ± 0.073 µM.

In the case of `CC(C)N1CCN(c2ccc3c(c2)oc(=O)n3C(=O)NCCCCc2ccccc2)CC1` [23h, 6-(4-Isopropylpiperazin-1-yl)-2-oxo-N-(4-phenylbutyl)-1,3-benzoxazole-3-carboxamide], at AC (setting [4]), the IC50 was 0.211 ± 0.065 µM.

With `O=C(NCCOCc1ccccc1)n1c(=O)oc2cc(-c3ccc(F)cc3)ccc21` [2d, N-(2-Benzyloxyethyl)-6-(4-fluorophenyl)-2-oxo-1,3-benzoxazole-3-carboxamide], the IC50 at AC (setting [5]) was found to be 4.7 ± 6.04 µM.

With `O=C(NCCCCc1ccccc1)n1c(=O)oc2cc(C3CCCCC3)ccc21` [22a, 6-Cyclohexyl-2-oxo-N-(4-phenylbutyl)-1,3-benzoxazole-3-carboxamide], on AC (setting [4]), the IC50 worked out at 0.089 ± 0.054 µM.

For the compound `O=C1C(=O)N(C(=O)NCCCCc2ccccc2)c2ccccc21` [8c, 2,3-Dioxo-N-(4-phenylbutyl)indoline-1-carboxamide], on AC (setting [4]), the IC50 is greater than 10 µM.

Consider `CCCCCNC(=O)n1c(=O)oc2cc(-c3ccc(F)cc3)ccc21` [2e, 6-(4-Fluorophenyl)-2-oxo-N-pentyl-1,3-benzoxazole-3-carboxamide], for which the solubility at 1 h in data set [3] was less than 1 µM. At AC (read-out: hAC IC50), the half-maximal inhibitory concentration (IC50) came to 0.06 µM.

Regarding `CC(=O)N1CCc2oc(=O)n(C(=O)NCCCCc3ccccc3)c2C1` [12e, 5-Acetyl-2-oxo-N-(4-phenylbutyl)-6,7-dihydro-4H-oxazolo[4,5-c]pyridine-3-carboxamide], the IC50 on AC (setting [5]) was 0.293 ± 0.107 µM.

Turning to `CCOCCNC(=O)n1c(=O)oc2cc(C3CCN(C)CC3)ccc21` [22l, N-(2-Ethoxyethyl)-6-(1-methyl-4-piperidyl)-2-oxo-1,3-benzoxazole-3-carboxamide], the IC50 at AC (setting [4]) came out at 1.05 ± 0.312 µM.

For the compound `CCOCCNC(=O)n1c(=O)oc2cc(-c3ccc(F)cc3)ccc21` [2f, N-(2-Ethoxyethyl)-6-(4-fluorophenyl)-2-oxo-1,3-benzoxazole-3-carboxamide], the IC50 at AC (setting [5]) was found to be 2.3 µM.

For `CN1CCc2oc(=O)n(C(=O)NCCCCc3ccccc3)c2C1` [12c, 5-Methyl-2-oxo-N-(4-phenylbutyl)-6,7-dihydro-4H-oxazolo[4,5-c]pyridine-3-carboxamide Hydrochloride], the IC50 at AC (setting [5]) came to 0.516 ± 0.165 µM.

Take `COCCCNC(=O)n1c(=O)oc2cc(-c3ccc(F)cc3)ccc21` [2g, 6-(4-Fluorophenyl)-N-(3-methoxypropyl)-2-oxo-1,3-benzoxazole-3-carboxamide]: the IC50 on AC (setting [5]) was 2.6 ± 0.176 µM.

`CN1CCC(c2ccc3[nH]c(=O)oc3c2)CC1` [21g, 6-(1-Methyl-4-piperidyl)-3H-1,3-benzoxazol-2-one]: the “inhibition of hAC” value against AC (tested at 1 and 10 μM) was “not able to inhibit hAC”.

As to `O=C(NCCCCc1ccccc1)n1c(=O)oc2cc(N3CCCCC3)ccc21` [23a, 2-Oxo-N-(4-phenylbutyl)-6-piperidin-1-ium-1-yl-1,3-benzoxazole-3-carboxamide Hydrochloride], the IC50 on AC (setting [4]) was 0.08 ± 0.017 µM.

As to `CC(C)CN1CCN(c2ccc3c(c2)oc(=O)n3C(=O)NCCCCc2ccccc2)CC1` [23i, 6-(4-Isobutylpiperazin-1-Yl)-2-oxo-N-(4-phenylbutyl)-1,3-benzoxazole-3-carboxamide], on AC (setting [4]), the IC50 came out at 0.127 ± 0.037 µM.

For the compound `O=C(NCCCCc1ccccc1)n1c(=O)oc2cc(N3CCS(=O)(=O)CC3)ccc21` [23c, 6-(1,1-Dioxo-1,4-thiazinan-4-yl)-2-oxo-N-(4-phenylbutyl)-1,3-benzoxazole-3-carboxamide], the IC50 on AC (setting [4]) stood at 0.16 ± 0.014 µM.

Turning to `O=C(NCCCCc1ccccc1)n1c(=O)oc2cc(N3CCOCC3)ccc21` [23b, 6-Morpholino-2-oxo-N-(4-phenylbutyl)-1,3-benzoxazole-3-carboxamide], on AC (setting [4]), the IC50 is 0.192 ± 0.087 µM.
